Legend:
Experiment in all cases: radiometric filter-binding kinase assay, Kinaseprofiler
[1] = test system: GSK3A (human), P49840 [S449A]; settings: ATP 10 µM
[2] = test system: AKT1 (human), P31749 [S478G]; settings: ATP 155 µM
[3] = test system: SGK2 (human), Q9HBY8 [S416D]; settings: ATP 15 µM
[4] = test system: TAOK3 (human), Q9H2K8 [N47S]; settings: ATP 15 µM
[5] = test system: TEK (human), Q02763 [Q939H/Q940H]; settings: ATP 200 µM
CDK7 CCNH MNAT1 (human) = CDK7 CCNH MNAT1 (human) (UniProt P50613+P51948+P51946); settings: ATP 90 µM
[6] = target: PRKAA2 PRKAB1 PRKAG1 (human) (UniProt P54619+P54646+Q9Y478); settings: ATP 45 µM
MTOR FKBP1A (human) = MTOR FKBP1A (human) (UniProt P42345+P62942); settings: ATP 45 µM
CDK2 CCNE1 (human) = CDK2 CCNE1 (human) (UniProt P24941+P24864); settings: ATP 120 µM
CDK2 CCNA2 (human) = CDK2 CCNA2 (human) (UniProt P24941+P20248); settings: ATP 45 µM
CDK3 CCNE1 (human) = CDK3 CCNE1 (human) (UniProt Q00526+P24864); settings: ATP 200 µM

Chain of TEK (human), Q02763 [Q939H/Q940H] (Q02763 whole entry Q939H/Q940H, looked up): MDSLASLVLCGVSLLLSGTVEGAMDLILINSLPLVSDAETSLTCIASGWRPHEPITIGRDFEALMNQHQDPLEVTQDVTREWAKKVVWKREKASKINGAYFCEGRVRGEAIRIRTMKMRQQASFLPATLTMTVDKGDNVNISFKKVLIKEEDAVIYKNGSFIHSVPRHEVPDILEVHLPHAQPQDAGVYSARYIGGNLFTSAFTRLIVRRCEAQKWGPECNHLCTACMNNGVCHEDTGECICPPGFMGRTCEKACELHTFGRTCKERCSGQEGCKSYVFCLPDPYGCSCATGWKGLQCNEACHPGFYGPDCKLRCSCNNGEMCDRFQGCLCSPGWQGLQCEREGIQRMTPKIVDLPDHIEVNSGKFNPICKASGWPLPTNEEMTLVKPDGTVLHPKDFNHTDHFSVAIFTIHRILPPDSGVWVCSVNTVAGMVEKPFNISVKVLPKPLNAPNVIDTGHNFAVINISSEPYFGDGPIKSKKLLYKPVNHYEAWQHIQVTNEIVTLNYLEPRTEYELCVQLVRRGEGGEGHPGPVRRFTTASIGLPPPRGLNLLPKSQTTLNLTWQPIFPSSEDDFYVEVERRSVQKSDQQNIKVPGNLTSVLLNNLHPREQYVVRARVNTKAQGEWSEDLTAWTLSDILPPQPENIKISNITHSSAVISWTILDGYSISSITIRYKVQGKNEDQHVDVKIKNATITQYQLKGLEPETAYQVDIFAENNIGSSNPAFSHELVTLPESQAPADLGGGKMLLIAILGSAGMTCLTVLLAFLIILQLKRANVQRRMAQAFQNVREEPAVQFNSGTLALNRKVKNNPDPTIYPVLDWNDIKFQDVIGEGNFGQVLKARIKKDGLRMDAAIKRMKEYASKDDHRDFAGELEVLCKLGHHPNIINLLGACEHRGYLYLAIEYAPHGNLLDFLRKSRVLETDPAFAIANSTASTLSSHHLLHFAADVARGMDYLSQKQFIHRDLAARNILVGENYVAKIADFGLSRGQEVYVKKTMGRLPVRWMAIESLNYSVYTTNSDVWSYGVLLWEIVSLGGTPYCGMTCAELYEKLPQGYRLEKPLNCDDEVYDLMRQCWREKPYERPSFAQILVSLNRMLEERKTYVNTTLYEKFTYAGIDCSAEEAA
Chain of MTOR FKBP1A (human) (P62942 whole entry, looked up, other chains not shown): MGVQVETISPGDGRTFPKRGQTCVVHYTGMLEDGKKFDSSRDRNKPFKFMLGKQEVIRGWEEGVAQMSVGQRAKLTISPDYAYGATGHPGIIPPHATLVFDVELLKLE
Chain of TAOK3 (human), Q9H2K8 [N47S] (Q9H2K8 whole entry, looked up, stated change not applied): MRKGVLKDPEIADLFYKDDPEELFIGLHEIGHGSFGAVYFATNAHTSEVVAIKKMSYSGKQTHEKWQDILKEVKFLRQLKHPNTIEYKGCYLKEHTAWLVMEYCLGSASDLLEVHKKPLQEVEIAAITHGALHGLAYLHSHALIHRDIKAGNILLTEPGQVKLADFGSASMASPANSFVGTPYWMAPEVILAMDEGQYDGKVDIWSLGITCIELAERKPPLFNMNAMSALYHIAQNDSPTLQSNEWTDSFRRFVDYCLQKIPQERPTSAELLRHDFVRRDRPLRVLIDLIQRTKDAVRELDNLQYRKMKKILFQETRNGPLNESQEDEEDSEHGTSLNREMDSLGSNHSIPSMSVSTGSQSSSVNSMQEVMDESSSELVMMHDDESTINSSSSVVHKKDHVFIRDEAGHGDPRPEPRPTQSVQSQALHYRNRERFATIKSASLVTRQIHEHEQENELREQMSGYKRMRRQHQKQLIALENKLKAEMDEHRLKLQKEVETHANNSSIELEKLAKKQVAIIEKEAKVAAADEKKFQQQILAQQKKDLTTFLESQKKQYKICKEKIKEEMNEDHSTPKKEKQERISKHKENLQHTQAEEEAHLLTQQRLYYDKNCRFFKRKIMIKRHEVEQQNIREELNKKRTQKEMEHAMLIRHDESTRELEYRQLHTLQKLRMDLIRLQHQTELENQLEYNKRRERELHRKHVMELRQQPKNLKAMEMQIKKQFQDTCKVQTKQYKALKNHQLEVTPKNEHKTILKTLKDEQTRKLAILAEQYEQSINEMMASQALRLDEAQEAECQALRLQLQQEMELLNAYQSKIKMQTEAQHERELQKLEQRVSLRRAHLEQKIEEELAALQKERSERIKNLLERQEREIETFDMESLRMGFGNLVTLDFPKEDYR
Chain of SGK2 (human), Q9HBY8 [S416D] (Q9HBY8 whole entry, looked up, stated change not applied): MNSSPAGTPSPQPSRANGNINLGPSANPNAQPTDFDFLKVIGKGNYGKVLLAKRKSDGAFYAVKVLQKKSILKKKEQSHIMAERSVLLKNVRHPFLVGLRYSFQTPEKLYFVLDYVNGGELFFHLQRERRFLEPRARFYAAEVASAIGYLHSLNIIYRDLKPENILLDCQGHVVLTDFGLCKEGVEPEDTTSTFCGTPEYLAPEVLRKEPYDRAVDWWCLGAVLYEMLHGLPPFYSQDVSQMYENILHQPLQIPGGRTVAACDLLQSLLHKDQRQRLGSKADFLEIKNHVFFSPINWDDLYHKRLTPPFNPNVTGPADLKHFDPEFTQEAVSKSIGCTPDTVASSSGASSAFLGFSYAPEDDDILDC
Chain of AKT1 (human), P31749 [S478G] (P31749 whole entry, looked up, stated change not applied): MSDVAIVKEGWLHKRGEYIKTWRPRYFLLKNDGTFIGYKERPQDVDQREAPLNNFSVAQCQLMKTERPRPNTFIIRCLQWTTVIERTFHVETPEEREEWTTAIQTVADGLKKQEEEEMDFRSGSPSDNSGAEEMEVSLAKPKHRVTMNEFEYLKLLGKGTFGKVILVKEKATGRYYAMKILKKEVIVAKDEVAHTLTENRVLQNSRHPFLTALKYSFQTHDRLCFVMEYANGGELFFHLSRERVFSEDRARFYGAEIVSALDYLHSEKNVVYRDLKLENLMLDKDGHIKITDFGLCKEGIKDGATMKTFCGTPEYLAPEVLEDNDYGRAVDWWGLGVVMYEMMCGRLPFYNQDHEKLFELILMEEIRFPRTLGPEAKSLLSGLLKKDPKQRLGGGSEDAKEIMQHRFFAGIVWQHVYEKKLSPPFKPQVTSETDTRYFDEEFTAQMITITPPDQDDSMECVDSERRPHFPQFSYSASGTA
Chain of GSK3A (human), P49840 [S449A] (P49840 whole entry, looked up, stated change not applied): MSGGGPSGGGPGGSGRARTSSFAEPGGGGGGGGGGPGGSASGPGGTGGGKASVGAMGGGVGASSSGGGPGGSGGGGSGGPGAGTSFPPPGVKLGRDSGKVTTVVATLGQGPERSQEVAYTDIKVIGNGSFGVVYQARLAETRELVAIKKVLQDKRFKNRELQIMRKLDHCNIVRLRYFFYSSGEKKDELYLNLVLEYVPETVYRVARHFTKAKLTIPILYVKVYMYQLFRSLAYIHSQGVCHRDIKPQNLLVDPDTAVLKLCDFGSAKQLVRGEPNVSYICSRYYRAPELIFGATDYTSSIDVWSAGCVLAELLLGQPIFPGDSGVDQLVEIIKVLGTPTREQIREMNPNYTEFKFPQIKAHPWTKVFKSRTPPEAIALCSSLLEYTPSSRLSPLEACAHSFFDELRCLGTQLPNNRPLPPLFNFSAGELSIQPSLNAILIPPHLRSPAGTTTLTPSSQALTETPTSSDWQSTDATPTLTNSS
Chain of PRKAA2 PRKAB1 PRKAG1 (human) (P54619 whole entry, looked up): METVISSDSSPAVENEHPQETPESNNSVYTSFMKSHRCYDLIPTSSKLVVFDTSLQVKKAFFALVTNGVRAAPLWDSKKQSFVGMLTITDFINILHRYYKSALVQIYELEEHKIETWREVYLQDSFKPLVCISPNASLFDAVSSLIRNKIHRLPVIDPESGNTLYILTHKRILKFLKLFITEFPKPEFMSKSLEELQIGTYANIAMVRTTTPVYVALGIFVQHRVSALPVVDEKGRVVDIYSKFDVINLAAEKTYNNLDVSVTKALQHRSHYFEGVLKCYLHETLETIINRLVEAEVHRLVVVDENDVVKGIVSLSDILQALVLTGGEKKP
Chain of PRKAA2 PRKAB1 PRKAG1 (human) (P54646 whole entry, looked up): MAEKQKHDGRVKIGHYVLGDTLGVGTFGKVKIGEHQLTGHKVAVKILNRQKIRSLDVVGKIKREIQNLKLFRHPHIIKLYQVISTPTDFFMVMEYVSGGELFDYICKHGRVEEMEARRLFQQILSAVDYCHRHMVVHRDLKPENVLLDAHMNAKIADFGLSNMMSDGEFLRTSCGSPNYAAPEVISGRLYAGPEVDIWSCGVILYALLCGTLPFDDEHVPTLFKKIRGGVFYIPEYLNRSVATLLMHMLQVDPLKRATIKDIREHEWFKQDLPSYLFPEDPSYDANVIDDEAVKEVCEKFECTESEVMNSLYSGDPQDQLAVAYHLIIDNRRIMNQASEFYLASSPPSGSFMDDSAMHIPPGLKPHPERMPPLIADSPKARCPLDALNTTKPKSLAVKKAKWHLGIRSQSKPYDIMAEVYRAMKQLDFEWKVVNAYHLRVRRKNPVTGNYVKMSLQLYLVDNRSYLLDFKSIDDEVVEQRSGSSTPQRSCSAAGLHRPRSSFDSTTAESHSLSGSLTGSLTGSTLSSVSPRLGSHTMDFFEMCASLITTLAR
Chain of PRKAA2 PRKAB1 PRKAG1 (human) (Q9Y478 whole entry, looked up): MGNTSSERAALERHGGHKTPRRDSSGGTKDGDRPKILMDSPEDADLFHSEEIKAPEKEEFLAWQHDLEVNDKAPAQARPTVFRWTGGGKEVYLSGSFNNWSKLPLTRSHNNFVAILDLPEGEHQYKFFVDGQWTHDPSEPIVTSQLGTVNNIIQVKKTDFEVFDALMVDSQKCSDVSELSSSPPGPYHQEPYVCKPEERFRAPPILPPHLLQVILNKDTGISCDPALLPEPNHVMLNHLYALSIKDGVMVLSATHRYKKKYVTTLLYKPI

For `O=C1Nc2ccccc2/C1=C1\Nc2ccccc2\C1=N/O`, which residual activity ([1]; compound 1.0 µM) is on record?
Its residual activity is 5%.

What about the residual activity ([1]; compound 10.0 µM) of the same compound?
The residual activity was 1%.

And the residual activity ([2]; compound 1.0 µM)?
The residual activity was 107%.

What about the residual activity ([2]; compound 10.0 µM) of the same compound?
The residual activity was 98%.

And the residual activity ([3]; compound 1.0 µM)?
Its residual activity is 61%.

What about the residual activity ([3]; compound 10.0 µM) of the same compound?
Its residual activity is 24%.

And the residual activity ([4]; compound 1.0 µM)?
Its residual activity is 85%.

And the residual activity ([4]; compound 10.0 µM)?
The residual activity was 28%.

What about the residual activity ([5]; compound 1.0 µM) of the same compound?
The residual activity was 103%.

What about the residual activity ([5]; compound 10.0 µM) of the same compound?
The residual activity was 41%.

With `CO[C@H]1CC2CC[C@@H](C)[C@@](O)(O2)C(=O)C(=O)N2CCCC[C@H]2C(=O)OC([C@H](C)C[C@@H]2CC[C@@H](O)[C@H](OC)C2)CC(=O)[C@H](C)/C=C(\C)[C@@H](O)[C@@H](OC)C(=O)[C@H](C)C[C@H](C)/C=C/C=C/C=C/1C` (stereo partly drawn) as the compound, how does the residual activity (CDK7 CCNH MNAT1 (human); compound 1.0 µM) read?
Its residual activity is 88%.

What about the residual activity (CDK7 CCNH MNAT1 (human); compound 10.0 µM) of the same compound?
The residual activity was 94%.

And the residual activity ([6]; compound 1.0 µM)?
The residual activity was 93%.

What about the residual activity ([6]; compound 10.0 µM) of the same compound?
The residual activity was 107%.

And the residual activity (MTOR FKBP1A (human); compound 1.0 µM)?
Its residual activity is -17%.

And the residual activity (MTOR FKBP1A (human); compound 10.0 µM)?
Its residual activity is 4%.

What about the residual activity (CDK2 CCNE1 (human); compound 1.0 µM) of the same compound?
The residual activity was 105%.

And the residual activity (CDK2 CCNE1 (human); compound 10.0 µM)?
Its residual activity is 96%.

And the residual activity (CDK2 CCNA2 (human); compound 1.0 µM)?
Its residual activity is 129%.

What about the residual activity (CDK2 CCNA2 (human); compound 10.0 µM) of the same compound?
The residual activity was 113%.

What about the residual activity (CDK3 CCNE1 (human); compound 1.0 µM) of the same compound?
The residual activity was 90%.

And the residual activity (CDK3 CCNE1 (human); compound 10.0 µM)?
The residual activity was 86%.

`O=C(Nc1cccc(Nc2nccc(Nc3cccc(C(F)(F)F)c3)n2)c1)C1CC1` was tested. Which residual activity ([5]; compound 10.0 µM) did it give?
The residual activity was 17%.

Reference: the kinase profiling compilation of Christmann-Franck et al. (2016)
